Test results taken from patent US7244431B2, “Allergy vaccines and their preparation” (priority 2000, dated 2007).

Assays:
[1] = test system: birch pollen allergic patients; assay: Skin prick testing of allergic patients; type: in vivo, human; details: 100 μg/ml
Protocol: SPTs were performed on the individuals forearms as described ([…]. et al. (1997) J. Clin Invest. 99, 1673-168; Dreborg S: (1989) J. Am. Acad. DerMatol. 21, 820-821). […] In addition standardized skin prick solutions (birch pollen extract and histamine) (Allergopharma, Reinbek, Germany) were tested. Reactions were recorded 20 minutes after SPT by photography and by transferring the ballpoint pen-surrounded wheal area with a scotch tape to paper.

[2] = test system: IgE antibodies in sera from birch pollen allergic patients; assay: ELISA detection of peptide- and rBet v 1-specific IgE antibodies; type: binding, human
Procedure, shortened: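 Sera from 60 birch pollen allergic patients (rhinoconjunctivitis and/or asthma; skin prick and CAP RAST characterized) plus one non-atopic individual, diluted 1:3, incubated overnight at 4 °C on coated plates. Bound IgE detected with 1:1000 alkaline-phosphatase-coupled mouse anti-human IgE.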

Sequence: LFPKVAPQAISSVENIEGNGGPGTIKKISFC [Peptide P2, Bet v 1-derived synthetic peptide, position aa 30-59, one cysteine added]
- mean wheal diameter ([1]; individual 1): 0 mm
- mean wheal diameter ([1]; individual 2): 0 mm
- mean wheal diameter ([1]; individual 3): 0 mm
- mean wheal diameter ([1]; individual 4): 0 mm
- mean wheal diameter ([1]; individual 5): 0 mm
- mean wheal diameter ([1]; individual 6 (allergic, without birch pollen allergy)): 0 mm
- IgE (OD) ([2]; serum of NHS, non-allergic control individual): — (Dashes indicate reactivities below the cut-off level (OD=0.050))
- IgE (OD) ([2]; serum of patient 1): — (Dashes indicate reactivities below the cut-off level (OD=0.050))
- IgE (OD) ([2]; serum of patient 2): — (Dashes indicate reactivities below the cut-off level (OD=0.050))
- IgE (OD) ([2]; serum of patient 3): — (Dashes indicate reactivities below the cut-off level (OD=0.050))
- IgE (OD) ([2]; serum of patient 4): — (Dashes indicate reactivities below the cut-off level (OD=0.050))
- IgE (OD) ([2]; serum of patient 5): — (Dashes indicate reactivities below the cut-off level (OD=0.050))
- IgE (OD) ([2]; serum of patient 6): — (Dashes indicate reactivities below the cut-off level (OD=0.050))
- IgE (OD) ([2]; serum of patient 7): — (Dashes indicate reactivities below the cut-off level (OD=0.050))
- IgE (OD) ([2]; serum of patient 8): — (Dashes indicate reactivities below the cut-off level (OD=0.050))
- IgE (OD) ([2]; serum of patient 9): — (Dashes indicate reactivities below the cut-off level (OD=0.050))
- IgE (OD) ([2]; serum of patient 10): — (Dashes indicate reactivities below the cut-off level (OD=0.050))
- IgE (OD) ([2]; serum of patient 11): — (Dashes indicate reactivities below the cut-off level (OD=0.050))
- IgE (OD) ([2]; serum of patient 12): — (Dashes indicate reactivities below the cut-off level (OD=0.050))
- IgE (OD) ([2]; serum of patient 13): — (Dashes indicate reactivities below the cut-off level (OD=0.050))
- IgE (OD) ([2]; serum of patient 14): — (Dashes indicate reactivities below the cut-off level (OD=0.050))
- IgE (OD) ([2]; serum of patient 15): — (Dashes indicate reactivities below the cut-off level (OD=0.050))
- IgE (OD) ([2]; serum of patient 16): — (Dashes indicate reactivities below the cut-off level (OD=0.050))
- IgE (OD) ([2]; serum of patient 17): — (Dashes indicate reactivities below the cut-off level (OD=0.050))
- IgE (OD) ([2]; serum of patient 18): — (Dashes indicate reactivities below the cut-off level (OD=0.050))
- IgE (OD) ([2]; serum of patient 19): — (Dashes indicate reactivities below the cut-off level (OD=0.050))
- IgE (OD) ([2]; serum of patient 20): — (Dashes indicate reactivities below the cut-off level (OD=0.050))
- IgE (OD) ([2]; serum of patient 21): — (Dashes indicate reactivities below the cut-off level (OD=0.050))
- IgE (OD) ([2]; serum of patient 22): — (Dashes indicate reactivities below the cut-off level (OD=0.050))
- IgE (OD) ([2]; serum of patient 23): — (Dashes indicate reactivities below the cut-off level (OD=0.050))
- IgE (OD) ([2]; serum of patient 24): — (Dashes indicate reactivities below the cut-off level (OD=0.050))
- IgE (OD) ([2]; serum of patient 25): — (Dashes indicate reactivities below the cut-off level (OD=0.050))
- IgE (OD) ([2]; serum of patient 26): — (Dashes indicate reactivities below the cut-off level (OD=0.050))
- IgE (OD) ([2]; serum of patient 27): — (Dashes indicate reactivities below the cut-off level (OD=0.050))
- IgE (OD) ([2]; serum of patient 28): — (Dashes indicate reactivities below the cut-off level (OD=0.050))
- IgE (OD) ([2]; serum of patient 29): — (Dashes indicate reactivities below the cut-off level (OD=0.050))
- IgE (OD) ([2]; serum of patient 30): — (Dashes indicate reactivities below the cut-off level (OD=0.050))
- IgE (OD) ([2]; serum of patient 31): — (Dashes indicate reactivities below the cut-off level (OD=0.050))
- IgE (OD) ([2]; serum of patient 32): — (Dashes indicate reactivities below the cut-off level (OD=0.050))
- IgE (OD) ([2]; serum of patient 33): — (Dashes indicate reactivities below the cut-off level (OD=0.050))
- IgE (OD) ([2]; serum of patient 34): — (Dashes indicate reactivities below the cut-off level (OD=0.050))
- IgE (OD) ([2]; serum of patient 35): — (Dashes indicate reactivities below the cut-off level (OD=0.050))
- IgE (OD) ([2]; serum of patient 36): — (Dashes indicate reactivities below the cut-off level (OD=0.050))
- IgE (OD) ([2]; serum of patient 37): — (Dashes indicate reactivities below the cut-off level (OD=0.050))
- IgE (OD) ([2]; serum of patient 38): — (Dashes indicate reactivities below the cut-off level (OD=0.050))
- IgE (OD) ([2]; serum of patient 39): — (Dashes indicate reactivities below the cut-off level (OD=0.050))
- IgE (OD) ([2]; serum of patient 40): — (Dashes indicate reactivities below the cut-off level (OD=0.050))
- IgE (OD) ([2]; serum of patient 41): — (Dashes indicate reactivities below the cut-off level (OD=0.050))
- IgE (OD) ([2]; serum of patient 42): — (Dashes indicate reactivities below the cut-off level (OD=0.050))
- IgE (OD) ([2]; serum of patient 43): — (Dashes indicate reactivities below the cut-off level (OD=0.050))
- IgE (OD) ([2]; serum of patient 44): — (Dashes indicate reactivities below the cut-off level (OD=0.050))
- IgE (OD) ([2]; serum of patient 45): — (Dashes indicate reactivities below the cut-off level (OD=0.050))
- IgE (OD) ([2]; serum of patient 46): — (Dashes indicate reactivities below the cut-off level (OD=0.050))
- IgE (OD) ([2]; serum of patient 47): — (Dashes indicate reactivities below the cut-off level (OD=0.050))
- IgE (OD) ([2]; serum of patient 48): — (Dashes indicate reactivities below the cut-off level (OD=0.050))
- IgE (OD) ([2]; serum of patient 49): — (Dashes indicate reactivities below the cut-off level (OD=0.050))
- IgE (OD) ([2]; serum of patient 50): — (Dashes indicate reactivities below the cut-off level (OD=0.050))
- IgE (OD) ([2]; serum of patient 51): — (Dashes indicate reactivities below the cut-off level (OD=0.050))
- IgE (OD) ([2]; serum of patient 52): — (Dashes indicate reactivities below the cut-off level (OD=0.050))
- IgE (OD) ([2]; serum of patient 53): — (Dashes indicate reactivities below the cut-off level (OD=0.050))
- IgE (OD) ([2]; serum of patient 54): — (Dashes indicate reactivities below the cut-off level (OD=0.050))
- IgE (OD) ([2]; serum of patient 55): — (Dashes indicate reactivities below the cut-off level (OD=0.050))
- IgE (OD) ([2]; serum of patient 56): — (Dashes indicate reactivities below the cut-off level (OD=0.050))
- IgE (OD) ([2]; serum of patient 57): — (Dashes indicate reactivities below the cut-off level (OD=0.050))
- IgE (OD) ([2]; serum of patient 58): — (Dashes indicate reactivities below the cut-off level (OD=0.050))
- IgE (OD) ([2]; serum of patient 59): — (Dashes indicate reactivities below the cut-off level (OD=0.050))
- IgE (OD) ([2]; serum of patient 60): — (Dashes indicate reactivities below the cut-off level (OD=0.050))
